What was measured:
[1] = tested on: MCF7 cells; assay: SA-β-galactosidase colorimetric assay on Tamoxifen-treated MCF7; type: cell-based, Homo sapiens
Protocol: Previously treated cells were fixed according to the protocols established by the supplier (Cell Signaling). The images were acquired using an optical microscope (Leica) with 5× and 10× magnification (MAG) or the phase microscopy EVOS XL Core at 10× MAG and analyzed using the ImageJ software. The mean signal intensity was then normalized for the total number of cells.
MCF7 cell line (ATCC; HTB-22, Homo sapiens, breast cancer) was purchased from ATCC; cells were grown in MEM medium (Corning, New York, USA, #15-010-CVR) supplemented with 10% FBS (Gibco, Invitrogen, Carlsbad, CA, USA, #10270106), 1% glutamine (Corning #25005-CI), 1% penicillin and streptomycin (Corning #30002-CI). Cells were incubated at 37 °C with 5% CO2. […] Cell mortality and vitality curves after treatment with K5 (10 μM, orange) or Vehicle (DMSO, grey) were monitored using the Incucyte live-cell Analysis system (Sartorius, Goettingen, Germany). The estimated Senolytic index (SI) was calculated as the ratio between the EC50 in proliferating cells and the EC50 in senescent cells, extrapolated using GraphPad Prism 10 software.
β-galactosidase colorimetric assay. […] The images were analyzed using the ImageJ software, quantifying the colorimetric signal emitted by each cell. […]

[2] = tested on: MCF7 cells; assay: Immunofluorescence of Cytochrome C / mitochondria colocalization in senescent MCF7; type: cell-based, Homo sapiens; conditions: MCF7, TAM 10 µM 96 h, then 72 h K5 10 µM or Dasatinib 1 µM
Protocol: Treated/untreated senescent IMR90 and MCF7 cells were fixed, permeabilized, and stained following suppliers' recommendations. Images were acquired using an Olympus IX83 research inverted microscope (IF) and a phase microscopy Nikon ECLIPSE Ei R (IHC) at 40× MAG.
Immunofluorescence staining. Treated/untreated IMR90 and MCF7 cells were cultured in LabTek II chamber slides (Nunc, Biosigma). At the final time point, cells were stained with 500 nM MitoTracker Orange (Thermo Fisher Scientific) for 30 min at 37°C and then fixed in 4% PFA (Merck) for 10 min, RT, and permeabilized with 0.1% Triton solution (Merck) for 30 min at RT. Samples were blocked in 5% BSA for 90 min, incubated overnight at 4°C with primary antibody against Cytochrome C (1:50, RbMAb, Abcam), and 1h at RT with secondary antibody Alexa Fluor 488 goat anti-Rb (1:200, Thermo Fisher Scientific). Nuclei were stained with DAPI (Cell Signaling) for 10 min at RT, and ProLong Glass Antifade Mountant (Thermo Fisher Scientific) was used to seal coverslips. Images were acquired using an Olympus IX83 research inverted microscope at 40X magnifications.

[3] = tested on: Drosophila melanogaster; assay: Drosophila melanogaster gene expression analysis (qRT-PCR); type: in vivo; conditions: K5 10 μg/mL
Protocol: Total RNA from Drosophila melanogaster was isolated using a TripleXtractor reagent kit (Grisp Research Solution, Porto, Portugal). Gene expression of Dacapo (Dap), Unpaired 2 (Upd2), Unpaired 3 (Upd3), and Glyceraldehyde‐3‐phosphate dehydrogenase 1 (Gapdh1) was analyzed by qRT‐PCR. Details are reported in the extended methods.

Cc1ccccc1-n1c(=O)n(Cc2ccccc2)c(=O)c2[nH]cnc21 [Compound K5, 1-benzyl-3-(2-methylphenyl)-7H-purine-2,6-dione]
SA-β-gal positive senescent cells ([1]; MCF7, TAM 10 μM 96 h then K5 10 μM 24 to 96 h, Vehicle 40%): 10%
reduced SA-β-gal ([1]; Tamoxifen-induced senescent MCF7): 30%
Cytochrome C / mitochondria colocalization, Overlap R (OR) ([2]; TAM + Vehicle OR = 0.978): 0.896
Cytochrome C / mitochondria colocalization, Pearson's Rr (PRr) ([2]; TAM + Vehicle PRr = 0.961): 0.810
Dap relative expression vs controls [3]: no significant difference
Upd2 relative expression vs controls ([3]; p < 0.05): significantly reduced
Upd3 relative expression vs controls ([3]; p < 0.05): significantly reduced

Reference: PMC12266748, “A Xanthine Derivative With Novel Heat Shock Protein 90‐Alpha Inhibitory and Senolytic Properties” (Aging Cell, 2025)
